The record followed here is PMC9643474, “The mycotoxin viriditoxin induces leukemia- and lymphoma-specific apoptosis by targeting mitochondrial metabolism” (Cell Death & Disease, 2022).

The test addresses T1, complex I (Bos taurus, UniProt P03887+P17694+P42026).
T1 construct: gene NDUFS2; whole respiratory complex I (about 45 subunits) in isolated bovine heart mitochondria, kit assay
Nature of the test: MitoCheck complex activity assay, isolated bovine heart mitochondria. It counts as biochemical. The note with it: 15 min, decreased complex I activity, binding site unknown.

T1 sequence (P17694 34-463): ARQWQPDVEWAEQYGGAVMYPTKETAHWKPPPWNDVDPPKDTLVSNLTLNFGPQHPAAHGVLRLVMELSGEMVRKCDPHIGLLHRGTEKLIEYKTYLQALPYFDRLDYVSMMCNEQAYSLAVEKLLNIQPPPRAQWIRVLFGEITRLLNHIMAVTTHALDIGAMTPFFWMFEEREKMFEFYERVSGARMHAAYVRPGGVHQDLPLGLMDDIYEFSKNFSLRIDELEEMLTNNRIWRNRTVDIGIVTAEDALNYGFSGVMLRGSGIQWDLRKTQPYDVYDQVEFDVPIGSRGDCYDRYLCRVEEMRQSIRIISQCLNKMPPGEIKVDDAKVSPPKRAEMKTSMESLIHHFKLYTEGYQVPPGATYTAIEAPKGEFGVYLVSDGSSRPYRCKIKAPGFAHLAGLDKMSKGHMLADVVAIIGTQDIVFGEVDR
T1 sequence (P42026 38-216): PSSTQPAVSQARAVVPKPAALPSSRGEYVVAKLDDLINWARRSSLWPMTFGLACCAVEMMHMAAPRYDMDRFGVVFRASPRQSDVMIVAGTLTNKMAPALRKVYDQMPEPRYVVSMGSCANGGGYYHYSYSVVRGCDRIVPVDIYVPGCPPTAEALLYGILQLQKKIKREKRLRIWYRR
T1 sequence (P03887 whole entry): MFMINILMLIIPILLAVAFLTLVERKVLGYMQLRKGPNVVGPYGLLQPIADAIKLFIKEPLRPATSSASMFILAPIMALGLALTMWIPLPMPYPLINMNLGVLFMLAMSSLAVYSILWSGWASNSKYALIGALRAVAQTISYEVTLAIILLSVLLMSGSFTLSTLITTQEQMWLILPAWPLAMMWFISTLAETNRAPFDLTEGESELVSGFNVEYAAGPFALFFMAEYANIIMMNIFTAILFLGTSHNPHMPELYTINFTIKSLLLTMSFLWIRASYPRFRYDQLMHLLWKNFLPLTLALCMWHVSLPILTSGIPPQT

In the case of `COC(=O)C[C@@H]1Cc2cc3c(-c4c(OC)cc(O)c5c(O)c6c(cc45)C[C@@H](CC(=O)OC)OC6=O)c(OC)cc(O)c3c(O)c2C(=O)O1` [viriditoxin], the “activity, % of DMSO control at 10 μM” value was “we could observe a decreased activity upon treatment with VDT for complex I”.
